Measurements from US10858360B2, “Tricyclic gyrase inhibitors” (priority 2011, dated 2020).
In brackets after ≈: the same amount, converted by molar mass. Read-outs that look alike come from different tables or passages of the source.

How the values were obtained:
S. aureus ATCC 13709 = assay: MIC, S. aureus ATCC 13709 (Alamar Blue broth microdilution); format: cell-based; details: for MIC: Staphylococcus aureus, ATCC13709, S. aureus
E. coli ATCC 25922 = assay: MIC, E. coli ATCC 25922; format: cell-based; details: for MIC: Escherichia coli, ATCC25922, E. coli
[1] = S. aureus, Alamar Blue read after overnight incubation at 35° C.
[2] = E. coli, Alamar Blue read after overnight incubation at 35° C.
[3] = Alamar Blue read after overnight incubation at 35° C.

Compound	MIC (S. aureus ATCC 13709; [3]) [µg/mL]	MIC (E. coli ATCC 25922; [3]) [µg/mL]	other results
CNc1cc(F)cc2c1[nH]c1nc(Oc3cncc(Cl)c3)nc(N3CC4CC3CC4N)c12 (stereo not shown) [4.279]			MIC Sa (S. aureus ATCC 13709; [1]): ≤0.5 µg/mL; MIC Ec (E. coli ATCC 25922; [2]): ≤0.5 µg/mL
CNc1cc(F)cc2c1[nH]c1nc(Sc3cnc4cccnc4c3)nc(N3CC(N)C4(CC4)C3)c12 (stereo not shown) [1.62]	≤ 0.5	≤ 0.5	
CNc1cccc2c1[nH]c1nc(Sc3cnc4cccnc4c3)nc(N3CC(N)C4(CC4)C3)c12 (stereo not shown) [1.27]	≤ 0.5	1 (≈ 2.13 µM)	
CNc1cc(F)cc2c1[nH]c1nc(Sc3cnc4ccc[n+]([O-])c4c3)nc(N3CCC4(CC4N)C3)c12 (stereo not shown) [1.65]			MIC Sa (S. aureus ATCC 13709; [1]): ≤0.5 µg/mL; MIC Ec (E. coli ATCC 25922; [2]): ≤0.5 µg/mL
CNc1cccc2c1[nH]c1nc(Oc3cncnc3)nc(N3C[C@H](NCC4CC4)C4(CC4)C3)c12 [3.12]	1 (≈ 2.19 µM)	8 (≈ 17.5 µM)	
CNc1cc(F)cc2c1[nH]c1nc(Oc3cnc(C)nc3)nc(-c3ccc(F)cc3CN)c12 [4.420]	2 (≈ 4.47 µM)	> 16	
CNc1cc(F)cc2c1[nH]c1nc(Oc3cnc(C)nc3)nc(-c3cccnc3N)c12 [4.448]	≤ 0.5	1 (≈ 2.4 µM)	
CNc1cc(C)cc2c1[nH]c1nc(Oc3cncnc3)nc(N3CC4C(N)C4C3)c12 (stereo not shown) [6.27]			MIC Sa (S. aureus ATCC 13709): ≤0.5 µg/mL; MIC Ec (E. coli ATCC 25922): 1 µg/mL (≈ 2.48 µM)
CNc1ncnc2c1[nH]c1nc(Oc3cncc(F)c3)nc(N3CCC4(CC4N)C3)c12 (stereo not shown) [7.07]	16 (≈ 38 µM)	> 64	
CNc1cccc2c1[nH]c1nc(Oc3cnc4c(c3)ncn4C)nc(N3CC4C(N)C4C3)c12 (stereo not shown) [3.36]	≤ 0.5	2 (≈ 4.53 µM)	
CNc1cccc2c1[nH]c1nc(Sc3cnc4ccc[n+]([O-])c4c3)nc(N3CCC4(CC4N)C3)c12 (stereo not shown) [1.39]			MIC Sa (S. aureus ATCC 13709; [1]): ≤0.5 µg/mL; MIC Ec (E. coli ATCC 25922; [2]): 1 µg/mL (≈ 2.06 µM)
CNc1cc(F)cc2c1[nH]c1nc(Oc3cncc(F)c3)nc(N3CC(N)C4(CC4)C3)c12 (stereo not shown) [4.056]	≤ 0.5	≤ 0.5	
CNc1cc(F)cc2c1[nH]c1nc(Oc3cncnc3)nc(N3CC4CC4(CN)C3)c12 (stereo not shown) [4.027]	≤ 0.5	1 (≈ 2.38 µM)	
CNc1cc(F)cc2c1[nH]c1nc(Oc3cnc(C)nc3)nc(N3CC4(CC4N)C3)c12 (stereo not shown) [4.096]			MIC Sa (S. aureus ATCC 13709; [1]): ≤0.5 µg/mL; MIC Ec (E. coli ATCC 25922; [2]): ≤0.5 µg/mL
CNc1cccc2c1[nH]c1nc(Oc3cnc(C)nc3)nc(N3CC[C@@H](NCCC#N)C3)c12 [3.10]	32 (≈ 72.2 µM)	> 64	
CNc1cc(F)cc2c1[nH]c1nc(Oc3cnc(N)nc3)nc(N3C[C@H]4CCN[C@H]4C3)c12 [4.187]	≤ 0.5	2 (≈ 4.59 µM)	

Compound	MIC (S. aureus ATCC 13709; [3]) [µg/mL]	MIC (E. coli ATCC 25922; [3]) [µg/mL]	other results
CNc1cc(F)cc2c1[nH]c1nc(Oc3cnc(C4CC4)nc3)nc(N3CC4CC(N)C4C3)c12 (stereo not shown) [4.240]	≤ 0.5	≤ 0.5	
CNc1cc(F)cc2c1[nH]c1nc(Oc3cnc(C)nc3)nc(N3CC4CC(N)C3C4)c12 (stereo not shown) [4.148]	≤ 0.5	4 (≈ 9.21 µM)	
CNc1cccc2c1[nH]c1nc(Sc3cnc4cccnc4c3)nc(N3CCC(CN)C3)c12 (stereo not shown) [1.48]	≤ 0.5	2 (≈ 4.38 µM)	
CNc1cc(F)cc2c1[nH]c1nc(Oc3cnc4[nH]cnc4c3)nc(N3CC4C(N)C4C3)c12 (stereo not shown) [4.311]	4 (≈ 8.98 µM)	> 16	
CNc1cc(F)cc2c1[nH]c1nc(Oc3cnc(C(C)(C)N)nc3)nc(N3C[C@H]4CC3C[C@H]4N)c12 [4.442]	1 (≈ 2.09 µM)	2 (≈ 4.19 µM)	
CNc1cc(F)cc2c1[nH]c1nc(Oc3cnc4ccoc4c3)nc(N3CC4CC(N)C4C3)c12 (stereo not shown) [4.290]	≤ 0.5	≤ 0.5	
CNc1cc(F)cc2c1[nH]c1nc(Oc3cnc(C)nc3)nc(N3CC4C(N)CC(C)(C)C4C3)c12 (stereo not shown) [4.097]			MIC Sa (S. aureus ATCC 13709; [1]): ≤0.5 µg/mL; MIC Ec (E. coli ATCC 25922; [2]): 2 µg/mL (≈ 4.2 µM)
CNc1cc(F)cc2c1[nH]c1nc(Oc3cncnc3)nc(N3CCC(C4(N)CC4)C3)c12 (stereo not shown) [4.017]	≤ 0.5	≤ 0.5	
CNc1cc(F)cc2c1[nH]c1nc(Oc3cnc(C)nc3)nc(N3CC4CC3CC4N)c12 (stereo not shown) [4.129]			MIC Sa (S. aureus ATCC 13709; [1]): ≤0.5 µg/mL; MIC Ec (E. coli ATCC 25922; [2]): ≤0.5 µg/mL
CNc1cc(F)cc2c1[nH]c1nc(Oc3cnc(C)nc3)nc(N3CC4C(N)CC4(C)C3)c12 (stereo not shown) [4.150]			MIC Sa (S. aureus ATCC 13709; [1]): ≤0.5 µg/mL; MIC Ec (E. coli ATCC 25922; [2]): 1 µg/mL (≈ 2.23 µM)
CNc1c(F)ccc2c1[nH]c1nc(Oc3cnc(C)nc3)nc(N3CC[C@@H](N)C3)c12 [6.01]	≤ 0.5	1 (≈ 2.45 µM)	
CNc1cccc2c1[nH]c1nc(Oc3cncc(F)c3)nc(N3CC(N)C4(CC4)C3)c12 (stereo not shown) [3.50]	≤ 0.5	2 (≈ 4.77 µM)	
CNc1cc(F)cc2c1[nH]c1nc(Oc3cnc4[nH]cnc4c3)nc(N3CC4CC(N)C4C3)c12 (stereo not shown) [4.310]	8 (≈ 17.4 µM)	> 16	
CNc1cccc2c1[nH]c1nc(Sc3ccc4ccc(C(=O)O)nc4c3)nc(N3CC4C(N)C4C3)c12 (stereo not shown) [1.74]	4 (≈ 8.04 µM)	> 64	
CNc1cc(F)cc2c1[nH]c1nc(Oc3cnc(SC)nc3)nc(N3CCC4(CC4N)C3)c12 (stereo not shown) [4.195]	≤ 0.5	1 (≈ 2.14 µM)	
CNc1cc(F)cc2c1[nH]c1nc(Oc3ccc4oc(C)nc4c3)nc(N3C[C@H]4CC[C@@H](N)[C@H]4C3)c12 [4.336]	≤ 0.5	1 (≈ 2.05 µM)	
